Assay results taken from patent US8183252B2, “Heterocyclic aspartyl protease inhibitors” (Schering Corporation, priority 2007, dated 2012).

target: T1, human BACE1 (sproBACE1) (Homo sapiens, UniProt P56817); assay: BACE-1 Peptide Hydrolysis Assay (HTRF); type: biochemical; conditions: not given
T1 construct: sBACE1, corresponding to amino acids 1-454; made in house; host or cells: Sf9 insect cells (baculovirus), secreted into the medium
From the text: A HindIII/PmeI fragment from pCDNA4-sBACE1myc/His was blunt ended using Klenow and subcloned into the Stu I site of PFASTBACI(A) (Invitrogen). A sBACE1mycHis recombinant bacmid was generated by transposition in DH10Bac cells (GIBCO/BRL). Subsequently, the sBACE1mycHis bacmid construct was transfected into sf9 cells using CellFectin (Invitrogen, San Diego, Calif.) in order to generate recombinant baculovirus. […] Five milliliters of high titer plaque purified sBACEmyc/His virus was used to infect 1 L of logarithmically growing sf9 cells for 72 hours. Intact cells were pelleted by centrifugation at 3000×g for 15 minutes. The supernatant, containing secreted sBACE1, was collected and diluted 50% v/v with 100 mM HEPES, pH 8.0. The diluted medium was loaded onto a Q-sepharose column. The Q-sepharose column was washed with Buffer A (20 mM HEPES, pH 8.0, 50 mM NaCl).
Proteins, were eluted from the Q-sepharose column with Buffer B (20 mM HEPES, pH 8.0, 500 mM NaCl). The protein peaks from the Q-sepharose column were pooled and loaded onto a Ni-NTA agarose column. The Ni-NTA column was then washed with Buffer C (20 mM HEPES, pH 8.0, 500 mM NaCl). Bound proteins were then eluted with Buffer D (Buffer C+250 mM imidazole).
Reactions were initiated by addition of substrate in a 5 μl aliquot resulting in a total volume of 25 μl. After 3 hr at 30° C. reactions were terminated by addition of an equal volume of 2× stop buffer containing 50 mM Tris-HCl pH 8.0, 0.5 M KF, 0.001% Brij-35, 20 μg/ml SA-XL665 (cross-linked allophycocyanin protein coupled to streptavidin; CIS-Bio International, France) (0.5 μg/well). Plates were shaken briefly and spun at 1200×g for 10 seconds to pellet all liquid to the bottom of the plate before the incubation.
Y=Bottom+(Top-Bottom)/(1+10^((LogEC50−X)*Hill Slope)); X is the logarithm of concentration of I, Y is the percent change in ratio and Y starts at bottom and goes to top with a sigmoid shape.

T1 sequence (P56817 22-454): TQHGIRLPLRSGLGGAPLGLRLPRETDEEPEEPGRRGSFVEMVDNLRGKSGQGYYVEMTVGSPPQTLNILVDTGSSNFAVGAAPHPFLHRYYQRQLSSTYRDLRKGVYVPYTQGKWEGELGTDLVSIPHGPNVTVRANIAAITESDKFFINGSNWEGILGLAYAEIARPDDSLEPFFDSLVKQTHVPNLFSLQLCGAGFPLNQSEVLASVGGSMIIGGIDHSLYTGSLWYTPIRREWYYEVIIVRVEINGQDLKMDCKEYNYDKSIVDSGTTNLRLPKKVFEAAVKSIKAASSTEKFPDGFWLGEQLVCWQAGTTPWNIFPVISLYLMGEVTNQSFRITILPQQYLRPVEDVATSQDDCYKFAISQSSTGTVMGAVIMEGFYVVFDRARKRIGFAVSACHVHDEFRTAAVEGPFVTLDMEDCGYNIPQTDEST

SMILES	Ki [µM]
CC(=O)N1CCC(CN2C(=N)NC(C)(c3cccc(-c4cccc5[nH]ccc45)c3)C2=O)CC1 (centres unmarked)	< 5

same assay, conditions: read-out: BACE-1 Ki

Ki [µM]	SMILES
< 5	CN1C(=N)NC(c2ccccc2)(c2cc(-c3cccc(Cl)c3)cs2)C1=O (centres unmarked) [5-[4-(3-CHLOROPHENYL)-2-THIENYL]-2-IMINO-3-METHYL-5-PHENYL-4-IMIDAZOLIDINONE]
< 5	CN1C(=N)N[C@](C)(c2ccc3nn(CC4CCCCC4)cc3c2)CC1=O
< 5	COCC1CCCN1C(=O)c1cccc(CN2C(=N)NC(C)(c3ccccc3)C2=O)c1 (centres unmarked)
< 5	Cc1cc(F)ccc1[C@]1(C)CC(=O)N(C)C(=N)N1
< 5	Cn1nccc1CN1C(=N)NC(c2ccccc2)(c2ccccc2)C1=O
< 5	CN1C(=N)N[C@](C)(c2ncc(-c3cc(F)cc(C#N)c3)s2)CC1=O
< 5	CC(=O)N1CCC(CN2C(=N)N[C@@](c3cccc(-c4cncc(Br)c4)c3)(C3CC3)C2=O)CC1
< 5	CN1C(=N)N[C@](C)(c2cccc(N3CCCC3)c2)CC1=O
< 5	CN1C(=N)N[C@](C)(c2cccc(-c3cccnc3F)c2)CC1=O
< 5	CC(=O)N1CCC[C@H](CN2C(=N)NC(c3ccccc3)(c3ccccc3)C2=O)C1
< 5	CN1C(=N)N[C@](CCC2CCCCC2)(C[C@H]2CCC[C@@H](NC(=O)Cc3ccc4ccccc4c3)C2)C1=O
< 5	CN1C(=N)N[C@](CCc2ccccc2)(C[C@H]2CCC[C@@H](Nc3cccnc3)C2)C1=O
< 5	N=C1NC(c2ccccc2)(c2ccccc2)C(=O)N1CC1CCN(S(=O)(=O)c2ccc3ccccc3c2)CC1 [piperidine, 4-[(2-imino-5-oxo-4,4-diphenyl-1-imidazolidinyl)methyl]-1-(2-naphthalenylsulfonyl)-]
< 5	CN1C(=N)N[C@](C)(c2cc(-c3cc(Cl)cc(C#N)c3)cs2)[C@H](C2CC2)C1=O
< 5	CN1C(=N)NC(c2ccccc2)(c2cccc(NC(=O)c3ccccc3)c2)C1=O (racemic)
< 5	COc1cc(C#N)cc(-c2csc([C@]3(C)CC(=O)N(C)C(=N)N3)c2)c1
< 5	CN1C(=N)N[C@](CCC2CCCCC2)(C[C@H]2CCC[C@@H](NC(=O)c3ccnnc3)C2)C1=O
< 5	COc1cccc(-c2cccc(C3(C)NC(=N)N(Cc4cccc(N5CCCCS5(=O)=O)c4)C3=O)c2)c1 (racemic)
< 5	N=C1NC(c2ccccc2)(c2ccccc2)C(=O)N1Cc1cccc(NC(=O)Cc2cccs2)c1
< 5	N=C1NC(c2ccccc2)(c2ccccc2)C(=O)N1Cc1cccc(NC(=O)C2CCCCC2)c1
< 5	CN1C(=N)N[C@](C)(C[C@H]2CCC[C@@H](Nc3ccc4ccccc4n3)C2)C1=O
< 5	CN1OCC(C)(c2cc(-c3ccc(F)c(C#N)c3)cs2)NC1=N (centres unmarked)
< 5	CN1OCC(C)(c2cccc(-c3cc(Cl)cc(Cl)c3)c2)NC1=N (centres unmarked)

Ki [µM]	SMILES
< 5	CN1C(=N)N[C@](C)(c2ccc(-c3cc(Cl)cc(C#N)c3)s2)[C@@H](C2CC2)C1=O
< 5	CN1C(=N)N[C@](C)(c2cc(C#N)cs2)[C@@H](c2ccc(C3CC3)cc2)C1=O
< 5	CN1C(=N)N[C@@](c2cccc(-c3cccc(CO)c3)c2)(C2CC2)C1=O
< 5	CC(C)Oc1cccc(-c2csc([C@]3(C)CC(=O)N(C)C(=N)N3)c2)c1
< 5	N=C1NC(c2ccccc2)(c2cccc(-c3cccnc3)c2)C(=O)N1CC1CCNCC1 (centres unmarked)
< 5	CN1C(=N)N[C@](C)(c2cc(-c3cccc(Br)c3)nn2C)C(C)(C)C1=O
< 5	COCC1CCCN1C(=O)c1cncc(CN2C(=N)NC(c3cccc(Br)c3)(C3CC3)C2=O)c1 (centres unmarked)
< 5	CN1C(=N)NC(c2ccccc2)(c2cccc(-c3ccoc3)c2)C1=O (racemic) [5-[3-(3-FURANYL)PHENYL]-2-IMINO-3-METHYL-5-PHENYL-4-IMIDAZOLIDINONE (RACEMIC), 5-[3-(3-FURANYL)PHENYL]-2-IMINO-3-METHYL-5-PHENYL-4-IMIDAZOLIDINONE]
< 5	CN1C(=N)N[C@](C)(c2ccc(C#N)s2)[C@@H](c2ccc(C(C)(F)F)cc2)C1=O
< 5	CN1C(=N)NC(c2ccc(-c3ccc(F)c(C#N)c3)s2)(C2CC2)CC1=O (centres unmarked)
< 5	CN1C(=N)N[C@@](c2cccc(-c3ccc(F)c(C#N)c3)c2)(C2CC2)C1=O
< 5	C[C@H]1C(=O)N(C)C(=N)N[C@]1(C)c1cc2ccccc2s1
< 5	CN1C(=N)NC(C)(c2ccc(C#N)s2)C(c2ccc(Cl)c(Cl)c2)C1=O (centres unmarked)
< 5	CN1C(=N)NC(C)(c2ccnc(-c3cc(Cl)cc(Cl)c3)c2)C1=O (centres unmarked)
< 5	CN1C(=N)N[C@](C)(c2cc(-c3ccc(F)c(C#N)c3)cs2)[C@H](C2CCC2)C1=O
< 5	CC(C)[C@H](CO)N1C(=N)NC(c2cccc(-c3cccc(Cl)c3)c2)(C2CC2)C1=O (stereo partly drawn) [4-imidazolidinone, 5-(3′-chloro[1,1′-biphenyl]-3-yl)-5-cyclopropyl-3-[(1R)-1-(hydroxymethyl)-2-methylpropyl]-2-imino-]
< 5	CCc1sc([C@@]2(C)NC(=N)N(C)C(=O)[C@@H]2CC)cc1-c1cccc(C#N)c1
< 5	CN1C(=N)N[C@](C)(c2cc(Br)co2)CC1=O
< 5	CN1C(=N)NC(C)(c2cccc(-c3cc(Cl)ccc3CNC(=O)Nc3ccc(Cl)cc3)c2)C1=O (centres unmarked) [urea, N-[[5-chloro-3′-(2-imino-1,4-dimethyl-5-oxo-4-imidazolidinyl)[1,1′-biphenyl]-2-yl]methyl]-N′-(4-chlorophenyl)-]
< 5	CN1C(=N)N[C@](C)(c2cc(-c3cccnc3)c3sccc3c2)CC1=O
< 5	Cc1cc(-c2cccc(C3(C4CC4)NC(=N)N(C)C3=O)c2)ccn1 (centres unmarked)
< 5	CN1C(=N)N[C@@](c2cccc(-c3cccnc3F)c2)(C2CC2)C1=O
< 5	CN1C(=N)NC(C)(c2cccc(-c3cc(Cl)ccc3CNC(=O)Cc3ccccc3)c2)C1=O (centres unmarked) [benzeneacetamide, N-[[5-chloro-3′-(2-imino-1,4-dimethyl-5-oxo-4-imidazolidinyl)[1,1′-biphenyl]-2-yl]methyl]-]

Ki [µM]	SMILES
< 5	CN1C(=N)NC(C)(c2cccc(-c3cc(Cl)ccc3CCOC=O)c2)C1=O (centres unmarked)
< 5	CN1C(=N)N[C@](C)(c2ccnc(-c3cccnc3F)c2)CC1=O
< 5	Cc1c(-c2ccc(F)c(C#N)c2)sc([C@@]2(C)CC(=O)N(C)C(=N)N2)c1Cl
< 5	C[C@H]1C(=O)N(C)C(=N)N[C@]1(C)c1cc(-c2cc(Cl)cc(C#N)c2)cs1
< 5	CN1C(=N)N[C@](C)(c2ncc(-c3cccc(Br)c3)s2)CC1=O
< 5	CCS(=O)(=O)Nc1ccc(CN2C(=N)NC(c3ccccc3)(c3ccccc3)C2=O)cc1 [ethanesulfonamide, N-[4-[(2-imino-5-oxo-4,4-diphenyl-1-imidazolidinyl)methyl]phenyl]-]
< 5	CN1C(=N)NC(c2ccccc2)(c2cccc(-c3cc(Br)cc(OC(F)(F)F)c3)c2)C1=O (racemic)
< 5	N=C1NC(c2ccccc2)(c2ccccc2)C(=O)N1Cc1cccc(NS(=O)(=O)C2CC2)c1
< 5	CN1C(=N)NC(C)(c2cc(-c3cccc(C#N)c3)cs2)C(CCN2CCCCC2)C1=O (centres unmarked)
< 5	CN1C(=N)N[C@](C)(c2c(F)cccc2F)[C@@H](c2ccc(C(F)(F)F)cc2)C1=O
< 5	CN1C(=N)N[C@](C)(c2cc3cccc(Br)c3s2)CC1=O
< 5	CCN(CC)CCCN1C(=N)NC(c2cccc(-c3cccc(Cl)c3)c2)(C2CC2)C1=O (centres unmarked) [4-imidazolidinone, 5-(3′-chloro[1,1′-biphenyl]-3-yl)-5-cyclopropyl-3-[3-(diethylamino)propyl]-2-imino-]
< 5	N=C1NC(c2ccccc2)(c2ccccc2)C(=O)N1CC1CCN(C(=O)Cc2cccnc2)CC1
< 5	COc1ccc(F)c(-c2cccc(C3(C)CON(C)C(=N)N3)c2)c1 (centres unmarked)
< 5	CN1C(=N)N[C@](C)(c2ccc3c(Br)n[nH]c3c2)CC1=O
< 5	CN1C(=N)NC(C)(c2cccc(-c3cc(Cl)ccc3CNC(=O)c3ccnnc3)c2)C1=O (centres unmarked)
< 5	CN1C(=N)N[C@](C)(c2cc(-c3ccncc3)c3sccc3c2)CC1=O
< 5	CC(C)Oc1cc(Cl)cc(-c2csc([C@]3(C)CC(=O)N(C)C(=N)N3)c2)c1
< 5	C[C@@]1(c2cc(-c3cccc(C#N)c3)cs2)CC(=O)N(Cc2ccncc2)C(=N)N1
< 5	CN1C(=N)N[C@](C)(c2csc(-c3ccc(F)c(C#N)c3)c2)CC1=O
< 5	N=C1NC(c2ccccc2)(c2ccccc2)C(=O)N1CC1CCN(S(=O)(=O)c2ccc(F)c(Cl)c2)CC1 [piperidine, 1-[(3-chloro-4-fluorophenyl)sulfonyl]-4-[(2-imino-5-oxo-4,4-diphenyl-1-imidazolidinyl)methyl]-]
